Results: PubChem BioAssay AID1963424 (Molecular Pharmacology Branch, DTP, NCI, 2024)

System: 327498-153-R-J2-PDC complex spheroid growth, % test/control
Test: Anticancer human tumor 327498-153-R-J2-PDC patient-derived uterine carcinosarcoma cell line growth inhibition [Asc]
Details: for IC50: curve of first compound; for viability, T/C: stronger effect = lower value
Summary of the method: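 Complex spheroids combining tumor cells with HUVEC endothelial cells and human MSCs, at 37 degrees C, 5% CO2; agents tested alone or combined, half-log dilutions from at or near clinical Cmax, or 10 microM if Cmax unknown.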

[1] = second compound 0.03 µM, first compound 0.0316 µM
[2] = second compound 0.03 µM, first compound 0.1 µM
[3] = second compound 0.03 µM, first compound 0.316 µM
[4] = second compound 0.03 µM, first compound 1 µM
[5] = second compound 0.0949 µM, first compound 0.0316 µM
[6] = second compound 0.0949 µM, first compound 0.1 µM
[7] = second compound 0.0949 µM, first compound 0.316 µM
[8] = second compound 0.0949 µM, first compound 1 µM
[9] = second compound 0.3 µM, first compound 0.0316 µM
[10] = second compound 0.3 µM, first compound 0.1 µM
[11] = second compound 0.3 µM, first compound 0.316 µM
[12] = second compound 0.3 µM, first compound 1 µM
[13] = second compound 0.949 µM, first compound 0.0316 µM
[14] = second compound 0.949 µM, first compound 0.1 µM
[15] = second compound 0.949 µM, first compound 0.316 µM
[16] = second compound 0.949 µM, first compound 1 µM
[17] = second compound 3 µM, first compound 0.0316 µM
[18] = second compound 3 µM, first compound 0.1 µM
[19] = second compound 3 µM, first compound 0.316 µM
[20] = second compound 3 µM, first compound 1 µM
[21] = second compound 0.1 µM, first compound 0.00949 µM
[22] = second compound 0.1 µM, first compound 0.03 µM
[23] = second compound 0.1 µM, first compound 0.0949 µM
[24] = second compound 0.1 µM, first compound 0.3 µM
[25] = second compound 0.1 µM, first compound 0.949 µM
[26] = second compound 0.1 µM, first compound 3 µM
[27] = second compound 0.316 µM, first compound 0.00949 µM
[28] = second compound 0.316 µM, first compound 0.03 µM
[29] = second compound 0.316 µM, first compound 0.0949 µM
[30] = second compound 0.316 µM, first compound 0.3 µM
[31] = second compound 0.316 µM, first compound 0.949 µM
[32] = second compound 0.316 µM, first compound 3 µM
[33] = second compound 1 µM, first compound 0.00949 µM
[34] = second compound 1 µM, first compound 0.03 µM
[35] = second compound 1 µM, first compound 0.0949 µM
[36] = second compound 1 µM, first compound 0.3 µM
[37] = second compound 1 µM, first compound 0.949 µM
[38] = second compound 1 µM, first compound 3 µM
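Also: spheroids exposed to compound for 7 days after 3 days of growth.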
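For viability, T/C in this document: 100% = DMSO vehicle control wells.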

C#Cc1c(F)ccc2cc(O)cc(-c3ncc4c(N5CC6CCC(C5)N6)nc(OCC56CCCN5CC(F)C6)nc4c3F)c12 (stereo not given) + CCN1C(C(=O)NC23CCC(C(=O)O)(CC2)CC3)C(c2cccc(Cl)c2F)C2(C(=O)Nc3cc(Cl)ccc32)C12CCCCC2
IC50 (second compound 0.03 µM): 2930 nM | IC50 (second compound 0.0949 µM): 709 nM | IC50 (second compound 0.3 µM): < 31.6 nM | IC50 (second compound 0.949 µM): < 31.6 nM | IC50 (second compound 3 µM): < 31.6 nM | viability, T/C [1]: 87.3% | viability, T/C [2]: 94.4% | viability, T/C [3]: 83.2% | viability, T/C [4]: 61.2% | viability, T/C (second compound 0.03 µM, first compound 3.16 µM): 54% | viability, T/C (second compound 0.03 µM, first compound 10 µM): 39.4% | viability, T/C [5]: 77.4% | viability, T/C [6]: 74.7% | viability, T/C [7]: 61.6% | viability, T/C [8]: 43% | viability, T/C (second compound 0.0949 µM, first compound 3.16 µM): 37% | viability, T/C (second compound 0.0949 µM, first compound 10 µM): 26.8% | viability, T/C [9]: 33.5% | viability, T/C [10]: 36.1% | viability, T/C [11]: 24.3% | viability, T/C [12]: 15.7% | viability, T/C (second compound 0.3 µM, first compound 3.16 µM): 14.4% | viability, T/C (second compound 0.3 µM, first compound 10 µM): 7.22% | viability, T/C [13]: 10.2% | viability, T/C [14]: 9.47% | viability, T/C [15]: 4.8% | viability, T/C [16]: 4.74% | viability, T/C (second compound 0.949 µM, first compound 3.16 µM): 4.43% | viability, T/C (second compound 0.949 µM, first compound 10 µM): 1.84% | viability, T/C [17]: 2.16% | viability, T/C [18]: 1.97% | viability, T/C [19]: 2.08% | viability, T/C [20]: 1.55% | viability, T/C (second compound 3 µM, first compound 3.16 µM): 1.14% | viability, T/C (second compound 3 µM, first compound 10 µM): 0.73%

Cc1nc(N2CCC3(CC2)COC(C)C3N)c(CO)nc1Sc1ccnc(N)c1Cl (stereo not given) + Cc1c(S(C)(=O)=O)c(-c2cc(F)cc(N3CCN(c4ccc(NS(=O)(=O)c5ccc(NC(CCN6CCC(C(=O)OCCCP(=O)(O)O)CC6)CSc6ccccc6)c(S(=O)(=O)C(F)(F)F)c5)cc4)CC3)c2)c(-c2ccc(Cl)cc2)n1C(C)C
IC50 (second compound 0.1 µM): 1560 nM | IC50 (second compound 0.316 µM): 625 nM | IC50 (second compound 1 µM): 594 nM | IC50 (second compound 3.16 µM): 829 nM | IC50 (second compound 10 µM): > 3000 nM | viability, T/C [21]: 98.7% | viability, T/C [22]: 90.4% | viability, T/C [23]: 83.8% | viability, T/C [24]: 65.8% | viability, T/C [25]: 54.8% | viability, T/C [26]: 44.5% | viability, T/C [27]: 94.9% | viability, T/C [28]: 94.2% | viability, T/C [29]: 70.2% | viability, T/C [30]: 59.5% | viability, T/C [31]: 46.6% | viability, T/C [32]: 38.9% | viability, T/C [33]: 95.3% | viability, T/C [34]: 93.6% | viability, T/C [35]: 68.6% | viability, T/C [36]: 58.4% | viability, T/C [37]: 47.1% | viability, T/C [38]: 38.3% | viability, T/C (second compound 3.16 µM, first compound 0.00949 µM): 98% | viability, T/C (second compound 3.16 µM, first compound 0.03 µM): 92% | viability, T/C (second compound 3.16 µM, first compound 0.0949 µM): 65.1% | viability, T/C (second compound 3.16 µM, first compound 0.3 µM): 64.6% | viability, T/C (second compound 3.16 µM, first compound 0.949 µM): 47% | viability, T/C (second compound 3.16 µM, first compound 3 µM): 42.5% | viability, T/C (second compound 10 µM, first compound 0.00949 µM): 179% | viability, T/C (second compound 10 µM, first compound 0.03 µM): 178% | viability, T/C (second compound 10 µM, first compound 0.0949 µM): 145% | viability, T/C (second compound 10 µM, first compound 0.3 µM): 142% | viability, T/C (second compound 10 µM, first compound 0.949 µM): 138% | viability, T/C (second compound 10 µM, first compound 3 µM): 117%

COc1c(OCCCN2CCOCC2)ccc2c3n(c(=NC(=O)c4cnc(N)nc4)nc12)CCN3 + CCN1C(C(=O)NC23CCC(C(=O)O)(CC2)CC3)C(c2cccc(Cl)c2F)C2(C(=O)Nc3cc(Cl)ccc32)C12CCCCC2
IC50 (second compound 0.03 µM): 81.8 nM | IC50 (second compound 0.0949 µM): 33.5 nM | IC50 (second compound 0.3 µM): < 3.16 nM | IC50 (second compound 0.949 µM): < 3.16 nM | IC50 (second compound 3 µM): < 3.16 nM | viability, T/C (second compound 0.03 µM, first compound 0.00316 µM): 84.5% | viability, T/C (second compound 0.03 µM, first compound 0.01 µM): 90.5% | viability, T/C [1]: 76.5% | viability, T/C [2]: 41.8% | viability, T/C [3]: 21.1% | viability, T/C [4]: 5.21% | viability, T/C (second compound 0.0949 µM, first compound 0.00316 µM): 80.3% | viability, T/C (second compound 0.0949 µM, first compound 0.01 µM): 73.3% | viability, T/C [5]: 50.4% | viability, T/C [6]: 25.6% | viability, T/C [7]: 12.3% | viability, T/C [8]: 2.62% | viability, T/C (second compound 0.3 µM, first compound 0.00316 µM): 40.1% | viability, T/C (second compound 0.3 µM, first compound 0.01 µM): 33.8% | viability, T/C [9]: 24.4% | viability, T/C [10]: 10.8% | viability, T/C [11]: 6.23% | viability, T/C [12]: 0.74% | viability, T/C (second compound 0.949 µM, first compound 0.00316 µM): 12.2% | viability, T/C (second compound 0.949 µM, first compound 0.01 µM): 9.4% | viability, T/C [13]: 5.86% | viability, T/C [14]: 2.63% | viability, T/C [15]: 1.42% | viability, T/C [16]: 0.49% | viability, T/C (second compound 3 µM, first compound 0.00316 µM): 4.48% | viability, T/C (second compound 3 µM, first compound 0.01 µM): 3.3% | viability, T/C [17]: 2.05% | viability, T/C [18]: 1.31% | viability, T/C [19]: 0.47% | viability, T/C [20]: 0.37%

CCN1C(C(=O)NC23CCC(C(=O)O)(CC2)CC3)C(c2cccc(Cl)c2F)C2(C(=O)Nc3cc(Cl)ccc32)C12CCCCC2 (stereo not given) + CNC(C)C(=O)NC1CN(S(=O)(=O)c2cccc(S(=O)(=O)N3CCC4CCC(C(=O)NC(c5ccccc5)c5ccccc5)N4C(=O)C(NC(=O)C(C)NC)C3)c2)CCC2CCC(C(=O)NC(c3ccccc3)c3ccccc3)N2C1=O
IC50 (second compound 0.01 µM): 193 nM | IC50 (second compound 0.0316 µM): 151 nM | IC50 (second compound 0.1 µM): 173 nM | IC50 (second compound 0.316 µM): 173 nM | IC50 (second compound 1 µM): 150 nM | viability, T/C (second compound 0.01 µM, first compound 0.00949 µM): 88.1% | viability, T/C (second compound 0.01 µM, first compound 0.03 µM): 90.9% | viability, T/C (second compound 0.01 µM, first compound 0.0949 µM): 72.2% | viability, T/C (second compound 0.01 µM, first compound 0.3 µM): 35.9% | viability, T/C (second compound 0.01 µM, first compound 0.949 µM): 8.7% | viability, T/C (second compound 0.01 µM, first compound 3 µM): 3.12% | viability, T/C (second compound 0.0316 µM, first compound 0.00949 µM): 90.8% | viability, T/C (second compound 0.0316 µM, first compound 0.03 µM): 83.9% | viability, T/C (second compound 0.0316 µM, first compound 0.0949 µM): 62% | viability, T/C (second compound 0.0316 µM, first compound 0.3 µM): 32.4% | viability, T/C (second compound 0.0316 µM, first compound 0.949 µM): 7.36% | viability, T/C (second compound 0.0316 µM, first compound 3 µM): 1.14% | viability, T/C [21]: 97.8% | viability, T/C [22]: 87.8% | viability, T/C [23]: 67.2% | viability, T/C [24]: 35.1% | viability, T/C [25]: 9.87% | viability, T/C [26]: 1.93% | viability, T/C [27]: 101% | viability, T/C [28]: 89.7% | viability, T/C [29]: 67.1% | viability, T/C [30]: 35.8% | viability, T/C [31]: 9.28% | viability, T/C [32]: 5.81% | viability, T/C [33]: 100% | viability, T/C [34]: 82.1% | viability, T/C [35]: 64.8% | viability, T/C [36]: 32.3% | viability, T/C [37]: 4.68% | viability, T/C [38]: 1.29%
